Data on 24 compounds can be found in ChEMBL document CHEMBL6177988, “Design, synthesis, biophysical and biological evaluation of original condensed pyrrolopyrimidine and pyrrolopyridine ligands as anti-SARS-CoV-2 agents targeting G4” (Eur J Med Chem, 2025).

The test system of data set [1] is Quadruplex DNA. Briefly: Thermal stabilization of human telomeric G-quadruplex F21T DNA (FAM-5'-GGGTTAGGGTTAGGGTTAGGG-3'-TAMRA) assessed as change in half-width of melting temperature at 2 uM by FRET-melting assay. The class given is nucleic-acid assay.
Data set [2] deals with Quadruplex DNA. Briefly: Thermal stabilization of human telomeric G-quadruplex F21T DNA (FAM-5'-GGGTTAGGGTTAGGGTTAGGG-3'-TAMRA) assessed as change in half-width of melting temperature at 1 uM by FRET-melting assay. The class given is nucleic-acid assay.
In data set [3] the test system is Non-structural protein 3/TRF2 G-quadruplex ribonucleic acid. Put plainly: Inhibition of N-terminal His-tagged SARS-CoV-2 Nsp3 SUD-NM domain (413-676 residues)/SARS-CoV-2 TRF2 G-quadruplex RNA incubated for 2 hrs by HTRF assay. The class given is protein assay, Severe acute respiratory syndrome coronavirus 2.
Data set [4] is described as follows: Cytotoxicity against human Caco-2 cells harboring ACE2-CI33 assessed as cell viability by celltiter glo assay. It is filed as toxicity, cell-based.
Data set [5] in a line: Cytotoxicity against human A549 cells harboring ACE2-CI33 assessed as cell viability by celltiter glo assay. The class given is toxicity, cell-based.
The subject of data set [6] is Quadruplex DNA. Put plainly: Thermal stabilization of human telomeric G-quadruplex F21T DNA (FAM-5'-GGGTTAGGGTTAGGGTTAGGG-3'-TAMRA) assessed as change in half-width of melting temperature at 0.5 uM by FRET-melting assay. The class given is nucleic-acid assay.

Regarding `CN(C)CCCCNCc1ccc(-c2nc(-c3ccc(CNCCCCN(C)C)cc3)c3ccn(-c4ccc(CNCCCCN(C)C)cc4)c3n2)cc1`, the results for the deltaTm1/2 in the data set with Quadruplex DNA [1] and in the data set on Quadruplex DNA [2] were over 36 °C and 23.8 °C, respectively. In data set [3], this compound had an IC50 of 48 nM.

Take `CN1CCN(CCCCNCc2ccc(-c3cc(-c4ccc(CNCCCCN5CCN(C)CC5)cc4)c4ccn(-c5ccccc5)c4c3)cc2)CC1`: the deltaTm1/2 with Quadruplex DNA [1] was determined as 20.4 °C. The IC50 in data set [3] was 74 nM.

For `CN(C)CCCNCc1ccc(-c2nc(-c3ccc(CNCCCN(C)C)cc3)c3ccn(-c4ccccc4)c3n2)cc1`, the deltaTm1/2 with Quadruplex DNA [1] turned out to be 25.9 °C. Moreover, in data set [3], inhibition was half-maximal at 137 nM (IC50).

On to `CN(C)CCCCCNCc1ccc(-c2cn(-c3ccccc3)c3ncnc(-c4ccc(CNCCCCCN(C)C)cc4)c23)cc1`, for which the deltaTm1/2 in the data set with Quadruplex DNA [1] worked out at 14.8 °C. The same compound registered an IC50 in data set [3] of 140 nM.

As for `CN(C)CCCCCNCc1ccc(-c2nc(-c3ccc(CNCCCCCN(C)C)cc3)c3ncn(-c4ccccc4)c3n2)cc1`, the deltaTm1/2 in the data set on Quadruplex DNA [1] was 34 °C. In data set [3], the IC50 was 103 nM.

On to `CN(C)CCCNCc1ccc(-c2nc(-c3ccc(CNCCCN(C)C)cc3)c3ccn(-c4ccc(CNCCCN(C)C)cc4)c3n2)cc1`, for which, in the data set with Quadruplex DNA [1], the deltaTm1/2 was 34.9 °C. Besides, the CC50 at 75 h in data set [4] is at least 7200 nM. Also, in data set [3], the IC50 was determined as 50 nM.

Take `CC(C)CCCCNCc1ccc(-c2cc(-c3ccc(CNCCCCC(C)C)cc3)c3ccn(-c4ccccc4)c3c2)cc1`: the deltaTm1/2 in the data set with Quadruplex DNA [1] was 4 °C. The IC50 in data set [3] was over 500 nM.

Take `CCN(CC)CCCCNCc1ccc(-c2cc3c(ccn3-c3ccccc3)c(-c3ccc(CNCCCCN(CC)CC)cc3)n2)cc1`: the deltaTm1/2 with Quadruplex DNA [1] worked out at 28.7 °C. For the same compound, in data set [3], the IC50 came to 446 nM.

Consider `CN(C)CCCCNCc1ccc(-c2cc(-c3ccc(CNCCCCN(C)C)cc3)c3ccn(-c4ccccc4)c3c2)cc1`, for which the deltaTm1/2 with Quadruplex DNA [1] was found to be 23.7 °C. Besides, the CC50 in data set [5] stood at 2830 nM. Also, the CC50 at 75 h in data set [4] amounted to 2140 nM. In data set [3], this compound displayed an IC50 of 75 nM.

Regarding `CN1CCN(CCCCNCc2ccc(-c3nc(-c4ccc(CNCCCCN5CCN(C)CC5)cc4)c4ncn(-c5ccccc5)c4n3)cc2)CC1`, the deltaTm1/2 with Quadruplex DNA [1] was 30.2 °C. Moreover, the IC50 in data set [3] was determined as 115 nM.

As for `CN(C)CCCCNCc1ccc(-c2cc(-c3ccc(CNCCCCN(C)C)cc3)c3ccn(-c4ccccc4)c3n2)cc1`, in the data set on Quadruplex DNA [1], the deltaTm1/2 is 26.3 °C. The compound further displayed an IC50 in data set [3] of 223 nM.

In the case of `CN(C)CCCCNCc1ccc(-c2cc3c(ccn3-c3ccccc3)c(-c3ccc(CNCCCCN(C)C)cc3)n2)cc1`, the deltaTm1/2 with Quadruplex DNA [1] amounted to 21 °C. In data set [3], this compound displayed a half-maximal inhibitory concentration (IC50) of 87 nM.

In data set [3], `O=c1c(O)cc([C@H]2Oc3cc(O)cc(O)c3C[C@H]2O)cc2c([C@H]3Oc4cc(O)cc(O)c4C[C@H]3O)cc(O)c(O)c12` [THEAFLAVIN] gave an IC50 of over 500 nM.

For `CN(C)CCCCCNCc1ccc(-c2cc3c(ccn3-c3ccccc3)c(-c3ccc(CNCCCCCN(C)C)cc3)n2)cc1`, in the data set with Quadruplex DNA [1], the deltaTm1/2 worked out at 22.6 °C. This compound displayed an IC50 in data set [3] of over 200 nM.

`C[n+]1cc(NC(=O)c2ccc3ccc4ccc(C(=O)Nc5cc6ccccc6[n+](C)c5)nc4c3n2)cc2ccccc21`: in the data set with Quadruplex DNA [6], the deltaTm1/2 was 21.2 °C.

For the compound `CN(C)CCCCCNCc1ccc(-c2cc(-c3ccc(CNCCCCCN(C)C)cc3)c3ccn(-c4ccccc4)c3c2)cc1`, in the data set on Quadruplex DNA [1], the deltaTm1/2 came to 30.9 °C. Further, the CC50 in data set [5] is 3010 nM. Further, in data set [4], the CC50 at 75 h was 2320 nM. In data set [3], it took 90 nM to reach half-maximal inhibition (IC50).

Take `CN(C)CCCCNCc1ccc(-c2ccc3ccc4ccc(-c5ccc(CNCCCCN(C)C)cc5)nc4c3n2)cc1`: the deltaTm1/2 with Quadruplex DNA [1] was 18.5 °C. The CC50 in data set [5] is over 10000 nM. For the same compound, the half-maximal inhibitory concentration (IC50) in data set [3] stood at 31.2 nM.

As to `CN(C)CCCCNCc1ccc(-c2nc(-c3ccc(CNCCCCN(C)C)cc3)c3ncn(-c4ccccc4)c3n2)cc1`, the deltaTm1/2 in the data set with Quadruplex DNA [1] was 31.7 °C. For the same compound, in data set [3], it took 79 nM to reach half-maximal inhibition (IC50).

In the case of `O=C(O[C@@H]1Cc2c(O)cc(O)cc2O[C@@H]1c1cc(O)c(=O)c2c(O)c(O)cc([C@H]3Oc4cc(O)cc(O)c4C[C@H]3OC(=O)c3cc(O)c(O)c(O)c3)c2c1)c1cc(O)c(O)c(O)c1`, the deltaTm1/2 in the data set with Quadruplex DNA [1] was found to be 0.9 °C.

`CN1CCN(CCCCNCc2ccc(-c3ccc4ccc5ccc(-c6ccc(CNCCCCN7CCN(C)CC7)cc6)nc5c4n3)cc2)CC1`: in the data set on Quadruplex DNA [1], the deltaTm1/2 is 24.1 °C. Also, the CC50 in data set [5] was over 10000 nM. In data set [3], this compound registered an IC50 of 31.4 nM.

Turning to `CN(C)CCCCNCc1ccc(-c2cn(-c3ccccc3)c3ncnc(-c4ccc(CNCCCCN(C)C)cc4)c23)cc1`, the deltaTm1/2 in the data set on Quadruplex DNA [1] worked out at 13.1 °C. Also, in data set [3], the half-maximal inhibitory concentration (IC50) was over 500 nM.

`CN(C)CCCCNCc1ccc(-c2nc(-c3ccc(CNCCCCN(C)C)cc3)c3c(ccn3-c3ccccc3)n2)cc1`: the deltaTm1/2 in the data set with Quadruplex DNA [1] is 18.6 °C. Inhibition in data set [3] was half-maximal at 90 nM (IC50).

For the compound `CN(C)CCCCNCc1ccc(-c2nc(-c3ccccc3)c3ccn(-c4ccc(CNCCCCN(C)C)cc4)c3n2)cc1`, the deltaTm1/2 in the data set with Quadruplex DNA [1] worked out at 26.4 °C. In data set [3], this compound gave an IC50 of 97 nM.

As for `CN(C)CCCNCc1ccc(-c2cn(-c3ccc(CNCCCN(C)C)cc3)c3ncnc(-c4ccc(CNCCCN(C)C)cc4)c23)cc1`, the deltaTm1/2 in the data set with Quadruplex DNA [1] is 20.3 °C. In data set [3], this compound had an IC50 of 46 nM.
